Source: patent US9664690B1, “Molecular diagnostic kits for evaluating stress” (The National Institute for Biotechnology in the Negev Ltd., priority 2013, dated 2017)

System: PBMCs
Test: GR antagonist block of MP immunosuppressive effects in anti-CD3 stimulated PBMCs (IFNg ELISA)
Assay type: cell-based, human
Conditions: plate-bound anti-CD3 48 hours, MP plus mifepristone
Experimental: Peripheral blood lymphocytes were stimulated in 96-well culture plate (2×10^5 cells/well) with plate bound anti-CD3 mAb (0.5 μg/ml), and cultured for 48 h at 37° C. The cultured supernatants were removed and stored at […]. Cytokine concentration in the supernatants were measured by ELISA using human cytokine kits.
Another approach to investigate the functionality of GR is by the examination of the responsiveness of immune cell subsets to the glucocorticoid antagonist, mifepristone. […] This indicates an impairment in GR signaling which contributes to steroid resistance, which could be tested in stressed and non-stressed individuals as described herein. Such an impairment could also optionally act as a biomarker for the stress diagnostic kit according to at least some embodiments thereof.
PBMCs were purified from young healthy-aged and AD subjects, stimulated by plate-bound anti-CD3 mAb (0.5 micro-g/ml) for 48 hours in the presence of MP or with both MP and GR antagonist, mifepristone. The cultured supernatants were examined for IFNg production by ELISA; the results are shown as percentage of the levels measured without MP.

CC#C[C@]1(O)CC[C@H]2[C@@H]3CCC4=CC(=O)CCC4=C3[C@@H](c3ccc(N(C)C)cc3)C[C@@]21C [mifepristone]
blocking of MP immunosuppressive effects (IFNg production) (PBMCs of aged and Alzheimer's disease (AD) subjects): impaired | blocking of MP immunosuppressive effects (IFNg production) (PBMCs of young subjects): partially blocks
